Laboratory results published in US20250066356A1, “LRRK2 INHIBITORS” (INTERLINE THERAPEUTICS, INC., priority 2022, published 2025).

Key:
LRRK2 wild type enzyme = LRRK2 wild type enzyme (Homo sapiens, UniProt Q5S007); assay: LRRK2 biochemical assay (LanthaScreen TR-FRET, LRRKtide substrate); conditions: LRRK2 inhibition; 3 nM LRRK2, 400 nM LRRKtide, 25 μM ATP, 120 min, 23° C.
Method: 10 mM compound solution was prepared in DMSO. An 11-point, 3-fold dilution was performed, with highest concentration at 10 μM. A 10 mM compound DMSO solution was added to Labcyte LDV plate and the compound concentration of source plate was 10 mM. The 1 st compound concentration of Inter plate (Labcyte 384 well PP plate) was 4.938×10^−1 mM which was prepared by transferring 1.5 μL of 10 mM compound from source plate to 28.9 μL DMSO. The 2nd compound concentration of Inter plate was 1.829×10^−2 mM which was prepared by transferring 60 nL of 10 mM compound from source plate to 32.7 μL DMSO. The 3rd compound concentration of Inter plate was 6.774×10^−4 mM which was prepared by transferring 2.5 nL of 10 mM compound from source plate to 36.9 μL DMSO. 100 nL of reference compound was dispensed in column 1 for low control wells and 100 nL of DMSO in column 24 for high control wells. Compounds were dispensed to column 2 to 23 of assay plate and backfilled with DMSO to a total volume of 100 nL.
A 2×LRRK2 enzyme solution (final concentration 3 nM) was prepared in assay buffer (Tris-HCl pH8.0: 50 mM, MgCl2: 5 mM, EDTA: 1 mM, Brij-35: 0.01%, 2 mM DTT). A 2× substrate solution was prepared: LRRK2 tide substrate (final concentration 400 nM) and ATP (final concentration 25 μM) in assay buffer. 5 μL 2×LRRK2 enzyme solution was dispensed to each well in assay plate by Multidrop. Assay plate was spun at 1,000 rpm for 1 min and incubated for 15 min at 23° C. 5 μL 2×ATP/LRRKtide solution was dispensed to each well in assay plate by Multidrop. Assay plate was spun at 1,000 rpm for 1 min and incubated for 120 min at 23° C.
A 2× detection solution was prepared: Tb-pERM (pLRRKtide) antibody (final concentration 0.25 nM) and EDTA (final concentration 10 mM) in TR-FRET dilution buffer. 10 μL 2× detection solution was dispensed to each well in assay plate to stop kinase reaction by Multidrop. Assay plate was spun at 1,000 rpm for 1 min and incubate for 30 min at 23° C. Assay plate was then read on Envision configured for LanthaScreen® TR-FRET.

[1] = target: T1, phosphorylation at Ser935 on wild type LRRK2 overexpressed in recombinant HEK-293T cells (Homo sapiens, UniProt Q5S007); assay: pS935 LRRK2 Cell Assay (HTRF); type: cell-based; conditions: LRRK2 inhibition; pS935 LRRK2 in transfected HEK293T cells, 2 hours compound incubation
T1 construct: host or cells: HEK293T, transient transfection
Text: The following protocol describes an in-vitro method for measuring phosphorylation at Ser935 on wild type LRRK2 overexpressed in recombinant HEK-293T cells. The method is based on HTRF technology, which combines Fluorescence Resonance Energy Transfer (FRET) with Time-Resolved measurement (TR). Phospho-LRRK2 (Ser935) is detected in a sandwich assay format using two different specific antibodies, one labelled with Eu^3+-Cryptate (donor) and the second with d2 (acceptor). When the fluorophores are in close proximity, excitation of the donor with a light source (flash lamp) stimulates FRET to the acceptor, which in turn fluoresces at a specific wavelength (665 nm). The fluorescence emission at 615 nm from the donor is also measured to allow ratiometric reduction of data. The specific signal is proportional to phospho-LRRK2 (Ser935).
Plasmid transient transfection: DMEM medium, FBS, DPBS, Trans-IT, OPTI-MEM reagents were allowed to warm to room temperature. HEK293T cells were cultured in DMEM+10% FBS complete medium in T150 flasks till around 80% confluency before transfection. Then cells were washed with 10 mL PBS and detached with 3 mL 0.25% typinsin. 30×10E6 HEK293T cells were seeded in DMEM+10% FBS complete medium to a 15 cm dish.
DNA, TransIT-LT1, OPTI-MEM complex were prepared: […] OPTI-MEM was added to a 15 mL cone tube, then […] plasmid was added to OPTI-MEM and mixed, followed by addition of 60 L TransIT-LT1 to the plasmid OPTI-MEM mixture and mixing. The resulting mixture was incubated for 15 minutes.
The above plasmid, DNA and OPTI-MEM mixture was added dropwise to the 15 cm dish, ensuring the drops were evenly distributed. The culture dish was gently rocked back and forth and from left to right to evenly distribute the complex. The transfected dish was incubated for 24 hours at 37° C., and 5% CO2.
Transfected HEK293T was collected in the 15 cm dish. Media was aspirated from tissue culture dish, and washed by dispensing 10 mL 1×DPBS into 15 cm dish. 1×DPBS was aspirated and 3 mL trypsin was dispensed to 15 cm dish. The dish was incubated with trypsin at room temperature for 3 min until the cells were detached. 10 mL of DMEM+10% FBS medium were added to 15 cm dish and triturated to ensure homogenous cell suspensions.
Homogenous cell suspensions were transferred to a 50 mL tube, and centrifuged for 5 minutes at 1,000 rmp/min. The supernatant was aspirated and resuspended with 20 mL complete medium. 1 mL of cell suspension was transferred for cell counting. The cell suspension was diluted to 2×10E5 cells/ml. 50 L cell suspensions were added to a 384-well plate. The plate was quick spun at 800 rpm for 1 minute, then incubate overnight at 37° C., 5% CO2.
Compound dispensing: compound was diluted (10 mM DMSO stock solution) and added to assay plate (top concentration: 10 μM, 3 fold serial dilution, 9 doses) with duplicates by Tecan liquid handler. The DMSO concentration of each well was normalized to 0.2%. Plates were quick spun at 1,000 rpm for 1 minute. Plates were incubated at 37° C., 5% CO2 for 2 hours.
1× lysis buffer solution supplemented with blocking reagent was prepared (e.g. 1 mL lysis buffer 4×+3 mL water+40 L stock blocking reagent 100×). Antibodies working solution was prepared by diluting 40-fold d2 and Cryptate antibodies with detection buffer (e.g. 1520 L detection buffer+40 L d2-antibody stock solution+[…] Cryptate-antibody stock solution).
After 2 hours incubation, cell plates were taken out from the incubator. Medium was removed by plate washer, then 16 µL of supplemented lysis buffer was added 1× to each well and incubated for 30 minutes at room temperature under shaking (800 rpm/min). 4 µL of antibodies working solution was added to each well, covered with a top seal and incubated overnight in 23° C. incubator.
HTRF signal was read (665 nm and 615 nm) on Wallac 2104 EnVision® multilabel reader. Data were analyzed by XL fit software.

T1 sequence (Q5S007 whole entry): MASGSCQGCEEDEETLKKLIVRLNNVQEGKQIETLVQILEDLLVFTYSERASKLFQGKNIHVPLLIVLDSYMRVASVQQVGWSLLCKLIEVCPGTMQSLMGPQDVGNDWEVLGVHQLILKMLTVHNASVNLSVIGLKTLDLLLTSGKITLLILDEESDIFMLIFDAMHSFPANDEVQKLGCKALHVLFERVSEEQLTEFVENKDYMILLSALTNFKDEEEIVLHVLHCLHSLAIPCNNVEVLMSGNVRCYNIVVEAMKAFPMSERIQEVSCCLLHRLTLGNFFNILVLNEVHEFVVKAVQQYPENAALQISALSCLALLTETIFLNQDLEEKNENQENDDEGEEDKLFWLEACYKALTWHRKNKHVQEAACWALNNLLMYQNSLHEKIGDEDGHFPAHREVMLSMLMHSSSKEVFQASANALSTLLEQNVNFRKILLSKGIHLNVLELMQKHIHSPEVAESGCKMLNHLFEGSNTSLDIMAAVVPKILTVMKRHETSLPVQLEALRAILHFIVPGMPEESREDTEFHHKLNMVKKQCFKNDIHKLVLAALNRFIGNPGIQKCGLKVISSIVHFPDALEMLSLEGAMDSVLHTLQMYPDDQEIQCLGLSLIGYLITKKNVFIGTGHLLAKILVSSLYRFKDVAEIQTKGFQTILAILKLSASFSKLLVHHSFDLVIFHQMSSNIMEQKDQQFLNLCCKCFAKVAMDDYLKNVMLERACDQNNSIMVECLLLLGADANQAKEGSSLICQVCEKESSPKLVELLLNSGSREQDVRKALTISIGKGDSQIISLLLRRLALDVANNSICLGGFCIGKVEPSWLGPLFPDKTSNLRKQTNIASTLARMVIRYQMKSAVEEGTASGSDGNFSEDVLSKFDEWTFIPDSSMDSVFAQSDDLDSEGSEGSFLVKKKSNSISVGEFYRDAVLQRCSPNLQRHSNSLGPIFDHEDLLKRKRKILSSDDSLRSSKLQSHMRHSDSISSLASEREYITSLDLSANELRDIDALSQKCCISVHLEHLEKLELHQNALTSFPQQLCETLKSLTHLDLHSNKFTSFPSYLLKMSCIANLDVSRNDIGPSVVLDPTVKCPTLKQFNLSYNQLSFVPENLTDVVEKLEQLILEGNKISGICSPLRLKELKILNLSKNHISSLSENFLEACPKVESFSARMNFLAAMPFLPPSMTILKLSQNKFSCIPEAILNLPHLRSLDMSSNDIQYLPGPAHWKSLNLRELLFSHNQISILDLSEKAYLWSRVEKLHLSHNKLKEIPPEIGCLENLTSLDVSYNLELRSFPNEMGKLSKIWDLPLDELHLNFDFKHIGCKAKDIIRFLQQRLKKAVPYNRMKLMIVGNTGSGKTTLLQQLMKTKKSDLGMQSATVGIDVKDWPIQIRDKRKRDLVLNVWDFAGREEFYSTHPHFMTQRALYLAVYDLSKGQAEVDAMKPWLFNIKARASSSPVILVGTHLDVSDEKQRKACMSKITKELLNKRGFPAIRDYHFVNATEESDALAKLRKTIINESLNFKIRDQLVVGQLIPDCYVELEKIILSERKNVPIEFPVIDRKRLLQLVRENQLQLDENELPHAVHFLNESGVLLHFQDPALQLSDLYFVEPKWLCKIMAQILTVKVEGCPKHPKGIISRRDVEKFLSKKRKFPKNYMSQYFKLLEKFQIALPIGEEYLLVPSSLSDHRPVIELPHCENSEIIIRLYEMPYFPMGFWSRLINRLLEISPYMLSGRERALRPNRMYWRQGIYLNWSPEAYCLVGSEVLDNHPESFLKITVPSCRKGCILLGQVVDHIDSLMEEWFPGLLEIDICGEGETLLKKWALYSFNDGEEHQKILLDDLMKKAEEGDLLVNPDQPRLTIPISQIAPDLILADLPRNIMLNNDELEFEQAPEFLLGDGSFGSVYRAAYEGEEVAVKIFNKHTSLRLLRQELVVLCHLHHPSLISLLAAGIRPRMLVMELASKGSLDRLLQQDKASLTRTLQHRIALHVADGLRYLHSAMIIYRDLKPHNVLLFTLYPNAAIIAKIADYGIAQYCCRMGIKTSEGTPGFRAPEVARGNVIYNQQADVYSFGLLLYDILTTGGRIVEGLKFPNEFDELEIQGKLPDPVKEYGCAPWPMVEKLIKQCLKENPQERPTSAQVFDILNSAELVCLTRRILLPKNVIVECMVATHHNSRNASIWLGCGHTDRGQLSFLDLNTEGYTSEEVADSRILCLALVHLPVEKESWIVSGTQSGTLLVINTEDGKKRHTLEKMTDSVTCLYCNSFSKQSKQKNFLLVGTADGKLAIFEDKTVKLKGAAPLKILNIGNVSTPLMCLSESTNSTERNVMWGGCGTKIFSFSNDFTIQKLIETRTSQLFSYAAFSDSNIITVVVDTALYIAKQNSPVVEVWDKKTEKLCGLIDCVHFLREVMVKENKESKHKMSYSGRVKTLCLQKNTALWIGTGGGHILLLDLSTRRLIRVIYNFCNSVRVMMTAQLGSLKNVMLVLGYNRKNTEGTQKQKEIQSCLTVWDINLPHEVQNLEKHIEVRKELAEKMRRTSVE
Sequence of LRRK2 wild type enzyme (Q5S007 whole entry): as above

| SMILES | IC50 (LRRK2 wild type enzyme) [nM] | IC50 [1] [nM] |
| --- | --- | --- |
| C[C@@H]1C[C@H](n2c(Cc3noc(=O)[nH]3)nc3cnc4ccc(C#N)cc4c32)CCO1 [Compound 14, 1-[(2R,4R)-2-methyloxan-4-yl]-2-[(5-oxo-4,5-dihydro-1,2,4-oxadiazol-3-yl)methyl]-1H-imidazo[4,5-c]quinoline-8-carbonitrile] | 7.84 | > 10000 |
| C[C@@H]1C[C@H](n2c(Cc3noc(=O)[nH]3)nc3cnc4ccc(Cl)cc4c32)CCO1 [Compound 15, 3-({8-chloro-1-[(2R,4R)-2-methyloxan-4-yl]-1H-imidazo[4,5-c]quinolin-2-yl}methyl)-4,5-dihydro-1,2,4-oxadiazol-5-one] | 3.23 | > 10000 |
| C[C@@H]1C[C@H](n2c(Cn3ccc(=O)c(C(=O)O)c3)nc3cnc4ccc(C#N)cc4c32)CCO1 [Compound 17, 1-({8-cyano-1-[(2R,4R)-2-methyloxan-4-yl]-1H-imidazo[4,5-c]quinolin-2-yl}methyl)-4-oxo-1,4-dihydropyridine-3-carboxylic acid] | 2.88 | 2950 |
| COC(=O)c1cn(Cc2nc3cnc4ccc(C#N)cc4c3n2[C@@H]2CCO[C@H](C)C2)ccc1=O [Compound 18, methyl 1-({8-cyano-1-[(2R,4R)-2-methyloxan-4-yl]-1H-imidazo[4,5-c]quinolin-2-yl}methyl)-4-oxo-1,4-dihydropyridine-3-carboxylate] | 2.64 | 7020 |
| COC(=O)c1cccn(Cc2nc3cnc4ccc(C#N)cc4c3n2[C@@H]2CCO[C@H](C)C2)c1=O [Compound 19, methyl 1-({8-cyano-1-[(2R,4R)-2-methyloxan-4-yl]-1H-imidazo[4,5-c]quinolin-2-yl}methyl)-2-oxo-1,2-dihydropyridine-3-carboxylate] | 8.03 | 592 |
| C[C@@H]1C[C@H](n2c(Cc3cn([C@H]4C[C@@H](S(C)(=O)=O)C4)nn3)nc3cnc4ccc(C#N)cc4c32)CCO1 [Compound 21] | 1.41 | 1770 |
